This is an account of results in PMC3128435 (Journal of physics. Condensed matter : an Institute of …, 2010).

The assay has as its target maltoporin (Escherichia coli, UniProt P02943). Description: single-channel current blockage in planar lipid bilayer. In kind it is binding. The conditions noted are these: 1.0 M NaCl, pH 7, 150 mV, 23 °C.

Sequence of maltoporin (P02943 26-446): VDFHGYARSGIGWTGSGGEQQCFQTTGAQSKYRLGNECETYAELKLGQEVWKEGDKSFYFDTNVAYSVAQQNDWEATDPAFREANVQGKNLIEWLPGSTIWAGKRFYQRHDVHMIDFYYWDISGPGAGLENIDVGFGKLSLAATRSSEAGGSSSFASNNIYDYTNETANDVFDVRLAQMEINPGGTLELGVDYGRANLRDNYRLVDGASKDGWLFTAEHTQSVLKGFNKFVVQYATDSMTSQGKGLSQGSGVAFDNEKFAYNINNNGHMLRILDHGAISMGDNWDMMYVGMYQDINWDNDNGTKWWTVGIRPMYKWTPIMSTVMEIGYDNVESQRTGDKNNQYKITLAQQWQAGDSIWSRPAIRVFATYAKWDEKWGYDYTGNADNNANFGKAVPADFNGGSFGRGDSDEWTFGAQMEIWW

`OC[C@H]1O[C@H](O[C@H]2[C@H](O)[C@@H](O)[C@@H](O[C@H]3[C@H](O)[C@@H](O)[C@@H](O[C@H]4[C@H](O)[C@@H](O)[C@@H](O[C@H]5[C@H](O)[C@@H](O)[C@@H](O[C@H]6[C@H](O)[C@@H](O)[C@@H](O[C@H]7[C@H](O)[C@@H](O)C(O)O[C@@H]7CO)O[C@@H]6CO)O[C@@H]5CO)O[C@@H]4CO)O[C@@H]3CO)O[C@@H]2CO)[C@H](O)[C@@H](O)[C@@H]1O` (some centres unmarked) [m7, maltoheptaose]: the “average lifetime of the channel complex” value was determined as 2.0 ± 0.3 ms.

Consider `OC[C@H]1O[C@@H]2O[C@H]3[C@H](O)[C@@H](O)[C@@H](O[C@H]4[C@H](O)[C@@H](O)[C@@H](O[C@H]5[C@H](O)[C@@H](O)[C@@H](O[C@H]6[C@H](O)[C@@H](O)[C@@H](O[C@H]7[C@H](O)[C@@H](O)[C@@H](O[C@H]8[C@H](O)[C@@H](O)[C@@H](O[C@H]1[C@H](O)[C@H]2O)O[C@@H]8CO)O[C@@H]7CO)O[C@@H]6CO)O[C@@H]5CO)O[C@@H]4CO)O[C@@H]3CO` [CD, β-cyclodextrin], for which the “average lifetime of the channel complex” value (cis-side addition) amounted to 7.3 ± 0.5 ms.
